In patent US20140051762A1, “POLYCATIONIC COMPOUNDS AND USES THEREOF” (priority 2004, published 2014):
“And” between values parts separate entries of the source, which are not always exact repeats. Identical values can stand only once.

Tests used:
Factor Xa = assay: anti-heparin assay, % Factor Xa inhibition at single concentration (chromogenic substrate S-2765); assay type: biochemical; conditions: Single concentration (10 ug/ml)
Description: (§1) The following example illustrates the heparin antagonistic effects of polycationic compounds of the present invention. To determine the anti-heparin activity of the polycationic compounds an assay measuring the percent inhibition using a fixed concentration of polycationic compound or concentrations of polycationic compounds causing lysis of 50% of human red blood cells were conducted.
10 IU of anti-thrombin was dissolved in 10 ml of buffer, resulting in a 1 IU/ml stock solution (250×) of the anti-thrombin. The 1 IU/ml (250×) stock solution of anti-thrombin and a 336 mM stock solution of NaCl were diluted into a total volume of 50 μl buffer so that the final anti-thrombin concentration was 0.004 IU/sample well and the NaCl was 150 mM/sample well. 1 μl of the compound to be tested, final concentration 10 μg/ml (corresponding to 0.5 logarithmic antagonist dilution) is added to the sample well. The samples are mixed and allowed to incubate at room temperature for 20 minutes. 50 μl of factor Xa dissolved in buffer is added to the sample well to a final concentration of 0.14 knat/well (2 μl of the 7.1 kna/1 ml stock solution to a final sample well buffer volume of 100 μl). The samples were mixed and further incubated at room temperature for 10 minutes. 10 μl of a 4 mM stock solution of the substrate S-2765 was added to each sample well for a final concentration of 0.4 mM in each sample well. The samples were mixed and hydrolyses of the chromogenic substrate Z-D-Arg-Gly-Arg-pNA (S-2765), thus liberating the chromophoric group pNA (p-nitroaniline), was monitored at 405 nm. The samples were mixed every 30 seconds to maintain a uniform mixture. ThermoLabsystems Multiskan Spectrum spectrophotometer was used to measure the absorbance spectrums. The increase in absorbance was proportional to the enzyme (factor Xa) activity. The % inhibition of factor Xa was determined using a standard curve.

[1] = test system: FGF2-induced angiogenesis in the CAM model; assay: FGF2-induced angiogenesis in the chick chorioallantoic membrane (CAM) model; assay type: in vivo, chick embryo; conditions: for Mean % inhibition ± SEM: Table 4
Description: The following example illustrates the anti-angiogenic effect of exemplary polycationic compounds of the present invention. Ten-day old embryos were purchased from Spafas, Inc. (Preston, Conn.) and were incubated at 37° C. with 55% relative humidity. In the dark with the help of a candling lamp, a small hole was punctured in the shell concealing the air sac with a hypodermic needle. A second hole was punctured in the shell on the broadside of the egg directly over an avascular portion of the embryonic membrane, as observed during candling. A false air sac was created beneath the second hole by the application of negative pressure to the first hole, which caused the chorioallantoic membrane (CAM) to separate from the shell. A window, approximately 1.0 cm^2, was cut in the shell over the dropped CAM with the use of a small crafts grinding wheel (Dremel, Division of Emerson Electric Company Racine, Wis.) which allowed direct access to the underlying CAM. Filter disks of #1 filter paper (Whatman International, United Kingdom) were soaked in 3 mg/mL cortisone acetate (Sigma, St. Louis, Mo.) in a solution of 95% ethanol and water and subsequently air dried under sterile conditions. FGF2 (Life Technologies, Gaithersburg, Md.) was used to grow vessels on the CAMs of 10 day old chick embryos. Sterile filter disks adsorbed with FGF2 dissolved in PBS at 1μg/mL were placed on growing CAMs. […] At 24 h, test compounds or control vehicle was added directly to CAM topically.
(§2) CAM tissue directly beneath FGF2-saturated filter disk was resected from embryos treated 48 hours prior with test compound or control. Tissues were washed three times with PBS. Sections were placed in a 35-mm petri dish (Nalgen Nunc, Rochester, N.Y.) and examined under a SV6 stereomicroscope (Karl Zeiss, Thornwood, N.Y.) at 50× magnification. Digital images of CAM sections adjacent to filters were collected using a 3-CCD color video camera system (Toshiba America, New York, N.Y.) and analyzed using Image-Pro Plus software (Media Cybernetics, Silver Spring, Md.). Table 4 contains the number of vessel branch points contained in a circular region equal to the area of a filter disk counted for each section.
as §2, with “48 h” for “48 hours”, “with” for “with test”, “dish (Nalge” for “dish (Nalgen”, “analyzed with the” for “analyzed using”, “Md.).” for “Md.). Table 4 contains the number of vessel branch points contained in a circular region equal to the area of a filter disk counted for each section.”

human red blood cells = assay: lysis of 50% of human red blood cells (HC50); assay type: cell-based
Description: as §1
Factor Xa Inhibition: EC50. To determine the concentration of polycationic compound that causes about 50% […], fixed heparin concentrations were used and different amounts of heparin antagonists were added.

heparin = assay: effect on coagulation time and heparin efficacy; conditions: Compound 26 0 mg/L
Description: The following example illustrates the effect of a polycationic compound of the present invention on coagulation time. The anti-heparin assay as described herein was used. The assay contained either 1 mg/L, 2 mg/L or 4 mg/I of heparin and increasing amounts of Compound 26 was added.

Row | Compound | % FactorXa Inhibition (Factor Xa) | other results
1 | CC(C)(C)c1cc(N)c(SCCN)c(NC(=O)c2cccc(C(=O)Nc3cc(C(C)(C)C)cc(N)c3SCCN)c2)c1 [Compound 3] | 2.855% | 
2 | CC(C)(C)c1cc(NC(=O)c2cccc(C(=O)Nc3cc(C(C)(C)C)cc(NC(=O)[C@H](N)CCCCN)c3SCCN)c2)c(SCCN)c(NC(=O)[C@H](N)CCCCN)c1 [Compound 4] | 0.9517% | 
3 | CC(C)(C)c1cc(NC(=O)c2cc(OCCN)cc(C(=O)Nc3cc(C(C)(C)C)cc(NC(=O)[C@H](N)Cc4ccccc4)c3SCCN)c2)c(SCCN)c(NC(=O)[C@H](N)Cc2ccccc2)c1 [Compound 5] | 39.77% | 
4 | CC(C)(C)c1cc(NC(=O)CCCN)c(SCCN)c(NC(=O)c2cccc(C(=O)Nc3cc(C(C)(C)C)cc(NC(=O)CCCN)c3SCCN)c2)c1 [Compound 6] | 2.583% | 
5 | CC(C)(C)c1cc(NC(=O)c2cccc(C(=O)Nc3cc(C(C)(C)C)cc(NC(=O)[C@H](N)Cc4ccccc4)c3SCCN)c2)c(SCCN)c(NC(=O)[C@H](N)Cc2ccccc2)c1 [Compound 8] | 7.41% | 
6 | CC(C)(C)c1cc(N)c(SCCNC(=N)N)c(NC(=O)c2cccc(C(=O)Nc3cc(C(C)(C)C)cc(N)c3SCCNC(=N)N)c2)c1 [Compound 9] | 10.88% and 16.25% | 
7 | CC(C)(C)c1cc(NC(=O)CCCCNC(=N)N)c(SCCNC(=N)N)c(NC(=O)c2cccc(C(=O)Nc3cc(C(C)(C)C)cc(NC(=O)CCCCNC(=N)N)c3SCCNC(=N)N)c2)c1 [Compound 10] | 20.8% | 
8 | CC(C)(C)c1cc(NC(=O)CCCCN)c(SCCN)c(NC(=O)c2cccc(C(=O)Nc3cc(C(C)(C)C)cc(NC(=O)CCCCN)c3SCCN)c2)c1 [Compound 11] | 1.903% | 
9 | CC(C)(C)c1cc(NC(=O)CCCCNC(=N)N)c(SCCN)c(NC(=O)c2cccc(C(=O)Nc3cc(C(C)(C)C)cc(NC(=O)CCCCNC(=N)N)c3SCCN)c2)c1 [Compound 12] | 9.381% | 
10 | CC(C)(C)c1cc(NC(=O)c2cccc(C(=O)Nc3cc(C(C)(C)C)cc(NC(=O)c4cc(N)ccc4OCCCCCN)c3SCCN)c2)c(SCCN)c(NC(=O)c2cc(N)ccc2OCCCCCN)c1 [Compound 13] | 36.84% | 
11 | CC(C)(C)c1cc(N)c(SCCNC(=N)N)c(NC(=O)c2cc(OCCNC(=N)N)cc(C(=O)Nc3cc(C(C)(C)C)cc(N)c3SCCNC(=N)N)c2)c1 [Compound 14] | 40.99% | 
12 | CC(C)(C)c1cc(N)c(SCCN)c(NC(=O)c2cc(C(=O)Nc3cc(C(C)(C)C)cc(N)c3SCCN)c(OCCN)cc2OCCN)c1 [Compound 15] | 5.71% | 
13 | CC(C)(C)c1cc(N)c(SCCNC(=N)N)c(NC(=O)c2cc(C(=O)Nc3cc(C(C)(C)C)cc(N)c3SCCNC(=N)N)c(OCCNC(=N)N)cc2OCCNC(=N)N)c1 [Compound 16] | 30.39% | 
14 | CC(C)(C)c1cc(N)c(SCCNC(=N)N)c(NC(=O)c2cc(C(=O)Nc3cc(C(C)(C)C)cc(N)c3SCCNC(=N)N)c(OCCN)cc2OCCN)c1 [Compound 17] | 15.02% | 
15 | CC(C)(C)c1cc(NC(=N)N)c(SCCN)c(NC(=O)c2cc(C(=O)Nc3cc(C(C)(C)C)cc(NC(=N)N)c3SCCN)c(OCCN)cc2OCCN)c1 [Compound 18] | 13.26% | 
16 | CC(C)OC(=O)c1cc(NC(=O)c2cc(OCCN)cc(C(=O)Nc3cc(C(=O)OC(C)C)cc(NC(=O)[C@H](N)CCCNC(=N)N)c3SCCN)c2)c(SCCN)c(NC(=O)[C@H](N)CCCNC(=N)N)c1 [Compound 19] | 59.82% | 

Row | Compound | % FactorXa Inhibition (Factor Xa) | other results
17 | CC(=O)Nc1cc(C(C)(C)C)cc(NC(=O)c2cccc(C(=O)Nc3cc(C(C)(C)C)cc(NC(C)=O)c3SCCNC(=N)N)c2)c1SCCNC(=N)N [Compound 20] | 7.852% | 
18 | CC(C)(C)c1cc(N)c(SCCNC2=NCCN2)c(NC(=O)c2cccc(C(=O)Nc3cc(C(C)(C)C)cc(N)c3SCCNC3=NCCN3)c2)c1 [Compound 21] | 1.496% | 
19 | CN(C)C(NCCSc1c(N)cc(C(C)(C)C)cc1NC(=O)c1cccc(C(=O)Nc2cc(C(C)(C)C)cc(N)c2SCCNC(N(C)C)=[N+](C)C)c1)=[N+](C)C [Compound 22] | 1.292% | 
20 | CC(=O)Nc1cc(C(C)(C)C)cc(NC(=O)c2cccc(C(=O)Nc3cc(C(C)(C)C)cc(NC(C)=O)c3SCCN)c2)c1SCCN [Compound 23] | 1.224% | 
21 | CC(=O)Nc1cc(C(C)(C)C)cc(NC(=O)c2cc(OCCN)cc(C(=O)Nc3cc(C(C)(C)C)cc(NC(C)=O)c3SCCN)c2)c1SCCN [Compound 24] | 1.835% | 
22 | N=C(N)NCCCCC(=O)Nc1cccc(NC(=O)c2cc(C(=O)Nc3cccc(NC(=O)NCCCNC(=N)N)c3SCCN)c(OCCN)cc2OCCN)c1SCCN [Compound 28] | 44.3% | 
23 | CC(C)(C)c1cc(N)c(SCCN)c(NC(=O)c2cc(C(=O)Nc3cc(C(C)(C)C)cc(N)c3SCCN)ncn2)c1 [Compound 33] | 32.02% | % inhibition ± SEM ([1]; Table 3, 1.0 ug + FGF2 (1 ug)): 17 ± 18%; Branch pts ± SEM ([1]; Table 3, 1.0 ug + FGF2 (1 ug)): 160 ± 18
24 | COc1ccc(NC(=O)C(CCCNC(=N)N)NC(=O)c2cc(NC(=O)C(CCCNC(=N)N)NC(=O)c3cc(NC(=O)C(CCCNC(=N)N)NC(=O)c4cc(NC(=O)C(N)CCCNC(=N)N)ccc4OC)ccc3OC)ccc2OC)cc1C(N)=O (stereo not drawn) [Compound 48] |  | HC50 (human red blood cells): 261 μg/ml and 144 μM; Mean % inhibition ± SEM ([1]; 1.0 ug + FGF2 (1 ug), n = 8): 16 ± 6%; Mean % inhibition ± SEM ([1]; 3.0 ug + FGF2 (1 ug), n = 8): 38 ± 8%; Mean % inhibition ± SEM ([1]; 10 ug + FGF2 (1 ug), n = 8): 55 ± 7%
25 | COC(=O)c1cc(NC(=O)c2cc(NC(=O)c3cc(NC(=O)c4cc(N)ccc4OC)ccc3OCCN)ccc2OC)ccc1OCCN [Compound 52] | 45.48% | 
26 | COC(=O)c1cc(NC(=O)c2cc(NC(=O)c3cc(NC(=O)c4cc(NC(=O)c5cc(NC(=O)c6cc(N)ccc6OC)ccc5OCCN)ccc4OC)ccc3OCCN)ccc2OC)ccc1OCCN [Compound 53] | 43.03% | 
27 | COC(=O)c1cc(OCCN)ccc1NC(=O)c1cc(OCCC(C)C)ccc1NC(=O)c1cc(OCCN)ccc1C(O)O [Compound 54] | 19.99% | 
28 | NCCc1cc(Br)cc(C#Cc2cccc(C#Cc3cc(Br)cc(CCN)c3)c2)c1 [Compound 55] | 46.5% | 
29 | Magainin [reference compound] | 4.419% | 
30 | fibroblast growth factor 2 [FgF2, reference compound] |  | Branch pts ± SEM ([1]; Table 2, FgF alone 1.0 ug/ml, n = 8): 155 ± 10; Branch pts ± SEM ([1]; Table 3, FgF2 alone 1.0 ug/ml): 177 ± 10
31 | heparin [reference compound] |  | Coagulation Time (heparin; Heparin 1 mg/L): 50.8 s; Heparin Efficacy (heparin; Heparin 1 mg/L): 1; Coagulation Time (heparin; Heparin 2 mg/L): 110.8 s; Heparin Efficacy (heparin; Heparin 2 mg/L): 1; Coagulation Time (heparin; Heparin 4 mg/L): 214.9 s; Heparin Efficacy (heparin; Heparin 4 mg/L): 1
